# Laboratory results from patent US4317912A, “Tetracyclic indole derivatives” (Farmitalia Carlo Erba S.p.A., priority 1979, dated 1982).
# What was measured:
# [1] = Acute (orientative) oral toxicity in mice; details: mouse, in vivo
# Description: The male mice for each group were orally treated with drugs at different dose levels for the determination of orientative toxicity.
# [2] = tested on: spontaneously hypertensive rats (Okamoto strain); assay: Anti-hypertensive activity in conscious spontaneously hypertensive rats (Okamoto), carotid artery catheter; type: in vivo, rat (spontaneously hypertensive
# Experimental: Blood pressure recordings were made in conscious hypertensive unrestrained rats weighing approximately 300 g, via a catheter cronically inserted into the left common carotid artery. Implantation of arterial cannula was made under sodium pentobarbital anesthesia (50 mg/kg i.p.). A 1 cm long incision was made through the previously shaved ventral surface of the neck and the tissues overlying the trachea parted by blunt dissection to reveal the carotid artery. The polyethylene catheter used was made with PE 50 tubing, previously filled with saline containing 250 I.U./ml heparin. The tip of the cannula was pushed at least 2 cm inside the vessel toward the heart. The cannula was then firmly tied and passed beneath the skin to emerge from a small incision in the back of the neck. During the postoperative period and before the start of each recording session, the cannula was flushed through daily with saline containing heparin (250 U.I./ml). The experiments were performed two days after surgery. Drugs were administered by gastric gavage.
# [3] = tested on: spontaneously hypertensive male rats, strain MHS; assay: Anti-hypertensive activity in spontaneously hypertensive rats (MHS), blood pressure and heart rate measured at the tail; type: in vivo, rat (spontaneously hypertensive; details: for Change in BP, 1st day, 1 hr after dose / Change in HR, 1st day, 1 hr after dose / Change in BP, 1st day, 5 hrs after dose / Change in HR, 1st day, 5 hrs after dose / Change in BP, 4th day, 1 hr after dose / Change in HR, 4th day, 1 hr after dose / Change in BP, 4th day, 5 hrs after dose / Change in HR, 4th day, 5 hrs after dose: mean of 4 animals; for Tolerance after repeated administration: four days, 355/1226 3 mg/kg, 355/1225 and 355/1229 5 mg/kg per os
# Experimental: Four spontaneously hypertensive male rats, strains MHS, weighing 250-300 g for each group were used.
# The animals were treated for four consecutive days. Drugs were administered by gastric gavage, suspended in 5% arabic gum (0.2 ml/100 g body weight). Blood pressure (BP) and heart rate (HR) were measured at the tail by BP Recorder W+W. Blood pressure and heart rate were measured on the 1st and 4th day of treatment 1 hour before and 1 and 5 hours after drug administration.
# *Data of LD50 from the literature. In Tables 1 and 2 are reported
# the results of the study of the activity of compounds 355/1165 and
# 355/1166 upon the BP and HR (measured indirectly by means of a tail cuff)
# of spontaneous hypertensive rats, MHS strain (4 rats each group). The
# compounds were given orally, once a day for 4 consecutive days.
# [4] = 1 mg/kg os, 30', mean of 6 animals
# [5] = 1 mg/kg os, 60', mean of 6 animals
# [6] = 1 mg/kg os, 120', mean of 6 animals
# [7] = 1 mg/kg os, 240', mean of 6 animals
# [8] = 1 mg/kg os, 360', mean of 6 animals
# [9] = MHS rats, 0.5 mg/kg os, 1st day
# [10] = MHS rats, 0.5 mg/kg os, 4th day
smiles,measurement,setting,value
"CN1CC(CC(C#N)C(N)=O)C2Cc3cccc4[nH]cc(c34)CC21 (stereo not drawn) [355/1165, 2-Cyano-3-[trans-5(10→9)abeo-6-methyl-ergoline-8β]-propionamide]",LD50 at 168 h,[1],> 1000 mg/kg
same,"Change in blood pressure after treatment, 30'",[2]; [4],-21 mmHg
same,"Change in heart rate after treatment, 30'",[2]; [4],-25 b/min
same,"Change in blood pressure after treatment, 60'",[2]; [5],-29 mmHg
same,"Change in heart rate after treatment, 60'",[2]; [5],-45 b/min
same,"Change in blood pressure after treatment, 120'",[2]; [6],-33 mmHg
same,"Change in heart rate after treatment, 120'",[2]; [6],-52 b/min
same,"Change in blood pressure after treatment, 240'",[2]; [7],-26 mmHg
same,"Change in heart rate after treatment, 240'",[2]; [7],-8 b/min
same,"Change in blood pressure after treatment, 360'",[2]; [8],-23 mmHg
same,"Change in heart rate after treatment, 360'",[2]; [8],+18 b/min
same,Activity compared with hydralazine,[2]; 1 mg/kg per os,3 times
same,Hypotensive activity,[2]; 1 mg/kg per os,marked and long lasting hypotensive activity
same,Effect on heart rate,[2]; oral (Table 4),slight bradycardia and never tachicardia
same,"Change in BP, 1st day, 1 hr after dose",[3]; [9],-13 mmHg
same,"Change in HR, 1st day, 1 hr after dose",[3]; [9],-25 b/min
same,"Change in BP, 1st day, 5 hrs after dose",[3]; [9],-17 mmHg
same,"Change in HR, 1st day, 5 hrs after dose",[3]; [9],-25 b/min
same,"Change in BP, 4th day, 1 hr after dose",[3]; [10],-17 mmHg
same,"Change in HR, 4th day, 1 hr after dose",[3]; [10],-30 b/min
same,"Change in BP, 4th day, 5 hrs after dose",[3]; [10],-3 mmHg
same,"Change in HR, 4th day, 5 hrs after dose",[3]; [10],-35 b/min
same,"Change in BP, 1st day, 1 hr after dose","[3]; MHS rats, 1 mg/kg os, 1st day",-15 mmHg
same,"Change in HR, 1st day, 1 hr after dose","[3]; MHS rats, 1 mg/kg os, 1st day",-20 b/min
same,"Change in BP, 1st day, 5 hrs after dose","[3]; MHS rats, 1 mg/kg os, 1st day",-19 mmHg
same,"Change in HR, 1st day, 5 hrs after dose","[3]; MHS rats, 1 mg/kg os, 1st day",-15 b/min
same,"Change in BP, 4th day, 1 hr after dose","[3]; MHS rats, 1 mg/kg os, 4th day",-30 mmHg
same,"Change in HR, 4th day, 1 hr after dose","[3]; MHS rats, 1 mg/kg os, 4th day",-27 b/min
same,"Change in BP, 4th day, 5 hrs after dose","[3]; MHS rats, 1 mg/kg os, 4th day",-42 mmHg
same,"Change in HR, 4th day, 5 hrs after dose","[3]; MHS rats, 1 mg/kg os, 4th day",-20 b/min
same,"Change in BP, 1st day, 1 hr after dose","[3]; MHS rats, 2 mg/kg os, 1st day",-25 mmHg
same,"Change in HR, 1st day, 1 hr after dose","[3]; MHS rats, 2 mg/kg os, 1st day",-47 b/min
same,"Change in BP, 1st day, 5 hrs after dose","[3]; MHS rats, 2 mg/kg os, 1st day",-53 mmHg
same,"Change in HR, 1st day, 5 hrs after dose","[3]; MHS rats, 2 mg/kg os, 1st day",-80 b/min
same,"Change in BP, 4th day, 1 hr after dose","[3]; MHS rats, 2 mg/kg os, 4th day",-33 mmHg
same,"Change in HR, 4th day, 1 hr after dose","[3]; MHS rats, 2 mg/kg os, 4th day",-48 b/min
same,"Change in BP, 4th day, 5 hrs after dose","[3]; MHS rats, 2 mg/kg os, 4th day",-45 mmHg
same,"Change in HR, 4th day, 5 hrs after dose","[3]; MHS rats, 2 mg/kg os, 4th day",-55 b/min
same,Effect on BP,"[3]; MHS rats, 0.5, 1 and 2 mg/kg per os, 1st and 4th day",significantly lowers BP on the 1st and 4th day after the treatment
same,"Antihypertensive activity compared with Hydralazine, 1st day","[3]; MHS rats, 1st day, 355/1165 2 mg/kg, 355/1226 3 mg/kg per os vs Hydralazine 3 mg/kg per os",more marked antihypertensive activity
same,"Antihypertensive effect compared with Hydralazine, 4th day","[3]; MHS rats, 4th day, 355/1165 2 mg/kg, 355/1226 3 mg/kg per os vs Hydralazine 3 mg/kg per os",even greater effect
same,Tolerance after repeated administration,"[3]; MHS rats, 355/1165 2 mg/kg",tolerance does not occur after repeated administration
same,Activity compared with α-methyl-DOPA,"[3]; MHS rats, 355/1165 2 mg/kg, 355/1226 3 mg/kg per os",50 times
"CN1CC(CCC#N)C2Cc3cccc4[nH]cc(c34)CC21 (stereo not drawn) [355/1225, Trans-5(10→9)abeo-6-methyl-ergoline-8β-propionitrile]",LD50 at 168 h,[1],600 mg/kg
same,"Change in BP, 1st day, 1 hr after dose","[3]; MHS rats, 1 mg/kg os, 1st day",-28 mmHg
same,"Change in HR, 1st day, 1 hr after dose","[3]; MHS rats, 1 mg/kg os, 1st day",+5 b/min
same,"Change in BP, 1st day, 5 hrs after dose","[3]; MHS rats, 1 mg/kg os, 1st day",-17 mmHg
same,"Change in HR, 1st day, 5 hrs after dose","[3]; MHS rats, 1 mg/kg os, 1st day",-22 b/min
same,"Change in BP, 4th day, 1 hr after dose","[3]; MHS rats, 1 mg/kg os, 4th day",-34 mmHg
same,"Change in HR, 4th day, 1 hr after dose","[3]; MHS rats, 1 mg/kg os, 4th day",-40 b/min
same,"Change in BP, 4th day, 5 hrs after dose","[3]; MHS rats, 1 mg/kg os, 4th day",-21 mmHg
same,"Change in HR, 4th day, 5 hrs after dose","[3]; MHS rats, 1 mg/kg os, 4th day",-43 b/min
same,"Change in BP, 1st day, 1 hr after dose","[3]; MHS rats, 5 mg/kg os, 1st day",-67 mmHg
same,"Change in HR, 1st day, 1 hr after dose","[3]; MHS rats, 5 mg/kg os, 1st day",-32 b/min
same,"Change in BP, 1st day, 5 hrs after dose","[3]; MHS rats, 5 mg/kg os, 1st day",-42 mmHg
same,"Change in HR, 1st day, 5 hrs after dose","[3]; MHS rats, 5 mg/kg os, 1st day",-4 b/min
same,"Change in BP, 4th day, 1 hr after dose","[3]; MHS rats, 5 mg/kg os, 4th day",-34 mmHg
same,"Change in HR, 4th day, 1 hr after dose","[3]; MHS rats, 5 mg/kg os, 4th day",-55 b/min
same,"Change in BP, 4th day, 5 hrs after dose","[3]; MHS rats, 5 mg/kg os, 4th day",-21 mmHg
same,"Change in HR, 4th day, 5 hrs after dose","[3]; MHS rats, 5 mg/kg os, 4th day",-59 b/min
same,Activity compared with Hydralazine and α-methyl-DOPA,"[3]; MHS rats, 5 mg/kg per os, 1st and 4th day, vs Hydralazine (3 mg/kg per os) and α-methyl-DOPA",greater activity
same,Time of peak effect on blood pressure,"[3]; MHS rats, 1 and 5 mg/kg orally",one hour after dosing
same,Effect on blood pressure,"[3]; MHS rats, 1 and 5 mg/kg orally, 1st and 4th day",reduces blood pressure in dose-dependent manner on both the 1st and 4th day of treatment
same,Tolerance after repeated administration,"[3]; MHS rats, 355/1165 2 mg/kg",No tolerance occurs
